How the values were obtained:
platelets [1] = experiment: Pressure increase in collagen-coated microchip 1, citric acid-treated blood with arachidonic acid or collagen (Examples 16 to 18); assay type: ex vivo; settings: subject G
Protocol: (§1) In the first substrate 100, the length, depth and width of the channel (capillary) 101 were 20 mm, 50 μm and 2 mm, respectively.
The experiments a to f in Example 16 were carried out for the subject G 6 hours after dosing with 100 mg of aspirin.
Using blood of the subject G collected 6 hours after dosing with 100 mg of aspirin, experiments were carried out in the same manner as in Examples 16d to f except that the collagen to be added was increased to 12 μl or 18 μl.

platelets [2] = experiment: Pressure increase in glass-surface microchip 2, citric acid-anticoagulated blood with ADP (Examples 8 to 10); assay type: ex vivo
Excerpt: The first substrate 200 shown in FIG. 3A and the second substrate 210 shown in FIG. 3B were laminated with and bonded to each other, to provide the microchip 2 shown in FIG. 3C. In terms of the substrate 200, a substrate made of PDMS (Fluidware) was used, and the depth of all the channels was 120 μm; the channel width was 1 mm; the length of the comb was 1 mm; the width of the comb was 50 μm; and the groove width was 50 μm. In terms of the substrate 210, a slide glass was used, and penetrating holes corresponding to the inlet and the outlet were provided as in the substrate 110, but, unlike the substrate 110, collagen was not applied since the glass plays a role as a platelet-adhesive surface. […] The mineral oil was injected from the pump 209 into the microchip 2 at a flow rate of 20 μl/min., and the inflow pressure of the mineral oil was measured by a pressure sensor which is not shown. Pressure changes were measured by carrying out an experiment which was the same as that in Example 8 except that ADP (manufactured by Wako Pure Chemical Industries, Ltd.) was further added to the blood anticoagulated with citric acid in the reservoir 207 to a final concentration of […]. Pressure changes were measured by carrying out an experiment which was the same as that in Example 9 except that blood collected 3 hours after dosing with 75 mg clopidogrel (Sanofi-aventis) was used.

platelets [3] = experiment: Camera images of platelet adherence in collagen-coated microchip 1 (Example 7); assay type: cell-based; settings: ADP 0.025, 0.05, 0.1 μM in citric acid-treated blood, 8 μl/min, image after 1 minute
Protocol: as §1
A pump 109 was connected to the reservoir 107 via a tube, and the pressure exerted on the pump was measured with a pressure sensor which is not shown. In the reservoir 107, a cylindrical stirring bar 108 having a diameter of 2 mm and a length of 5 mm, which was prepared by coating an iron cylinder with PMEA, was contained. The stirring bar 108 was set such that it can be rotated at 60 to 180 rpm by the magnetic force of a stirrer 113 placed under the heater 115 which was heated to 37° C. An outlet duct 112 was connected to the outlet such that the blood after the analysis can be discharged. A camera 111 to which an image analyzer 114 was connected was placed above the channel dividing section 102 of the microchip 1, thereby allowing observation of the state of platelet activation in the channel dividing section 102.
An experiment was carried out using the microchip 1 and the system A in Example 1 for diagnosis by images. The pump 109 was filled with mineral oil, and the reservoir 107 was filled with blood anticoagulated with citric acid. The mineral oil was sent to the reservoir 107 using the pump 109 at a flow rate of 8 μl/min. to allow the blood to flow into the microchip 1. […]

platelets [4] = settings: subject D, blood collected 6 hours after oral 100 mg clopidogrel, 6 μl of 100 μM ADP in about 600 μl blood, 20 μl/min
Protocol: Two transparent substrates, that is, the first substrate 100 shown in FIG. 1(A) and the second substrate 110 shown in FIG. 1(B) (injection-molded products manufactured by Richell Corporation) were prepared. The side of the first substrate 100 wherein a groove corresponding to a capillary 101 opens and the side of the second substrate 110 having a platelet-adhesive surface 106 were bonded together such that these face to each other using a silane coupling agent and thermocompression bonding, to provide the microchip 1 shown in FIG. 1(C). In the first substrate 100, the length, depth and width of the channel (capillary) 101 were 20 mm, 50 μm and 2 mm, respectively. In terms of the channel dividing section 102, dividing walls 103 each having a length of 1.5 mm, width of 50 μm and height of 50 μm were placed at equal intervals of 50 μm, and this part was used as the channel dividing section. In the second substrate, each of the holes corresponding to the inlet and the outlet was a penetrating hole having a circular cross section and an inner diameter of 2 mm and a depth of 2 mm. At the position on the second substrate 110 which is overlapped with the channel dividing section 102 of the first substrate 100, about 10 μl of 3 mg/ml collagen type I (manufactured by Nitta Gelatin Inc.) was applied and dried under vacuum to provide a platelet-adhesive surface 106. […]

platelets [5] = experiment: Pressure increase in collagen-coated microchip 1, hirudin-anticoagulated blood with agent added (Examples 19 to 22); assay type: cell-based; settings: flow rate 7 μl/min, ReoPro 0.4 or 0.8 μg/ml
Protocol: as §1
(a) Blood was collected from the subject D using a hirudin blood collection tube (Multiplate Services GmbH), and about 600 μl of the blood anticoagulated with hirudin was filled in the reservoir 207. The pump 209 was filled with mineral oil and connected to the reservoir 207, whose tip was further connected to the inlet 104 in the microchip 1.

CC(=O)Oc1ccccc1C(=O)O [aspirin]
pressure increase of blood collected after aspirin with increased collagen (platelets [1]; 6 hours after 100 mg aspirin, collagen increased to 12 μl or 18 μl, 20 μl/min (FIG. 19)): can also be made to cause pressure increase by increasing the collagen to be added | anti-platelet effect of aspirin by pressure increase (platelets [1]; 6 hours after dosing with 100 mg aspirin, arachidonic acid or collagen added, 20, 10, 5 μl/min): anti-platelet effect of aspirin can be analyzed

Nc1ncnc2c1ncn2[C@@H]1O[C@H](COP(=O)(O)OP(=O)(O)O)[C@@H](O)[C@H]1O [ADP, adenosine diphosphate]
pressure increase in the pump on addition of ADP (platelets [2]; blood anticoagulated with citric acid, ADP final concentration 2 nM, flow rate 20 μl/min): caused pressure increase | amount of platelets adhered to the comb portion (platelets [3]): increase in the amount of platelets adhered to the comb portion, which occurred in an ADP concentration-dependent manner

COC(=O)[C@H](c1ccccc1Cl)N1CCc2sccc2C1 [clopidogrel]
ADP-induced pressure increase after administration of clopidogrel (platelets [2]; blood collected 3 hours after dosing with 75 mg clopidogrel, ADP 2 nM, 20 μl/min): the increase was suppressed | pressure increase after administration of clopidogrel (platelets [4]): pressure increase delayed

B1: ReoPro: ReoPro (Eli lilly), an antibody against the receptor GPIIb/IIIa on the platelet membrane (antibody, chains of the INN, looked up, V domains shown)
VH: EVQLQQSGTVLARPGASVKMSCEASGYTFTNYWMHWVKQRPGQGLEWIGAIYPGNSDTSYIQKFKGKAKLTAVTSTTSVYMELSSLTNEDSAVYYCTLYDGYYVFAYWGQGTLVTVSA
VL: EIVLTQSPVTLSVTPGDSVSLSCRASRDISNNLHWFQQTSHESPRLLIKYASQSMSGIPSRFSGSGSGTDFTLSINSVETEDFGMYFCQQTNSWPYTFGGGTKLEIK
modifications: Fab
notes: ReoPro (Eli lilly), an antibody against the receptor GPIIb/IIIa on the platelet membrane
anti-platelet effect under low shear stress (platelets [5]): rather strong anti-platelet effect

Reference: US20160103142A1, “Blood-Platelet Test Method and Blood-Platelet Test Device” (FUJIMORI KOGYO CO., LTD., priority 2008, published 2016)
